The target in this test is GCN2 (Homo sapiens, UniProt Q9P2K8). In words: GCN2 enzymatic endpoint assay: phosphorylation of GFP-eIF2α measured by TR-FRET (Lanthascreen). The test is classed as biochemical. To be noted: tested as described in Example 77; compound and/or hydrochloride, dihydrochloride or trifluoroacetic acid salt; read-out: IC 50 Activity. The method, boiled down: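 Reaction started with 2 μM ATP and 80 nM GFP-labelled eIF2α substrate at room temperature, stopped with EDTA after 90 minutes. Phospho-eIF2α detected by terbium-labelled antibody TR-FRET; activity taken as 520 nm (fluorescein) to 495 nm (terbium) emission ratio.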
Sequence of GCN2 (Q9P2K8 whole entry): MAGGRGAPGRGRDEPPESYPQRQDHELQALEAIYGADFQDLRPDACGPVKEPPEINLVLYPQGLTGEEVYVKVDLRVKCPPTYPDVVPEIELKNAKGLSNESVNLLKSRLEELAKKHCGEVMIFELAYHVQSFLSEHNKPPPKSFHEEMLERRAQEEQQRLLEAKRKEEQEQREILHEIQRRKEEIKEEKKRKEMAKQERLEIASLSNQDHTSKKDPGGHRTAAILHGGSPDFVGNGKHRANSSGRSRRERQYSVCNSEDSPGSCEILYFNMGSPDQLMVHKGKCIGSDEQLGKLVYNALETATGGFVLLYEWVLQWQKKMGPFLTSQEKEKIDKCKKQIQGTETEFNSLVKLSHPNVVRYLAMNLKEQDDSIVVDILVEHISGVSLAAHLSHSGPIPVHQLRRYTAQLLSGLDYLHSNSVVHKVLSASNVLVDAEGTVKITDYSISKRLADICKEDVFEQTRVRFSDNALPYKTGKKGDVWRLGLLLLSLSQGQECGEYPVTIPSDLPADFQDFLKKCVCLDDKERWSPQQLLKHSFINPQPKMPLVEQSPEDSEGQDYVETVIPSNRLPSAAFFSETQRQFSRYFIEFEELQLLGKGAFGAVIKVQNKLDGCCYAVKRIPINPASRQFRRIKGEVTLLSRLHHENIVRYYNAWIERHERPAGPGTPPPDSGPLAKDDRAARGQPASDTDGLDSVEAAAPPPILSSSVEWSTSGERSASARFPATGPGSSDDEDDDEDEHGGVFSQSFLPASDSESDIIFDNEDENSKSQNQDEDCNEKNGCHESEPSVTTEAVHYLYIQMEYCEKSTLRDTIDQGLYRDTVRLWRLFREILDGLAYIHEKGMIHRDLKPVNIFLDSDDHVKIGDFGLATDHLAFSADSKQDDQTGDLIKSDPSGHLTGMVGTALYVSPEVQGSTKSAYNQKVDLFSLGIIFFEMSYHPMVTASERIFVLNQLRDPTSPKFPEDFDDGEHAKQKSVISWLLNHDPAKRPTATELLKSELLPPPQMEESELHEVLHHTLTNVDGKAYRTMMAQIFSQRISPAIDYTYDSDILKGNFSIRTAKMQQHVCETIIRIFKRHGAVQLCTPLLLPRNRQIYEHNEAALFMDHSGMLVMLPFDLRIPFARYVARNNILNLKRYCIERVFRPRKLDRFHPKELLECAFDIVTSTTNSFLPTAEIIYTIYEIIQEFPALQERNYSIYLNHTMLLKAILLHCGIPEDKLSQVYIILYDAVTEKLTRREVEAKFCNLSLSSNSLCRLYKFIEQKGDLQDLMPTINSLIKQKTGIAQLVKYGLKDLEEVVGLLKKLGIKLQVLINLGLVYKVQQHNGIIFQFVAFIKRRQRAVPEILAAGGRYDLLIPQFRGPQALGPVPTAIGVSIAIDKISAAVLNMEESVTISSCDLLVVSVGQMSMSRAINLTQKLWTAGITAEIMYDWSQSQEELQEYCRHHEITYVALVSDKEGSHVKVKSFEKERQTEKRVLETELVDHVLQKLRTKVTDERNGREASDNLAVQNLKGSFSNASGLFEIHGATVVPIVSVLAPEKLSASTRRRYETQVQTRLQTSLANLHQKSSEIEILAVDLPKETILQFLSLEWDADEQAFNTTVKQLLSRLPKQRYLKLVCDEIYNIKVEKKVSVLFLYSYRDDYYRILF
(In general: In TR-FRET formats the signal depends on donor and acceptor labels being close together.)

For the compound `O=C1OCC[C@@]12CC[C@@H](Nc1ncc3c(Br)nn(-c4cc(F)c5ncccc5c4)c3n1)C2` [(5S,8R)-8-[[3-bromo-1-(8-fluoro-6-quinolyl)pyrazolo[3,4-d]pyrimidin-6-yl]amino]-2-oxaspiro[4.4]nonan-1-one], the IC50 lay in the range of 25 to 200 nM.

With `CNC(=O)C1(CC#N)CC[C@@H](Nc2ncc3c(Br)nn(-c4ccc(-c5nnc(C)s5)cc4)c3n2)C1` (stereo partly shown), the IC50 lay within 25 to 200 nM. Under `O[C@@H]1CC[C@@H](Nc2ncc3c(Br)nn(-c4cc(F)c5ncccc5c4)c3n2)C1` [(1R,3R)-3-[[3-bromo-1-(8-fluoro-6-quinolyl)pyrazolo[3,4-d]pyrimidin-6-yl]amino]cyclopentanol] stands 25 to 200 nM; under `O=C(CO)N1CCN(C(=O)[C@@H]2CC[C@@H](Nc3ncc4c(Br)nn(-c5cc(F)c6ncccc6c5)c4n3)C2)CC1` [1-(4-((1R,3R)-3-((3-bromo-1-(8-fluoroquinolin-6-yl)-1H-pyrazolo[3,4-d]pyrimidin-6-yl)amino)cyclopentane-1-carbonyl)piperazin-1-yl)-2-hydroxyethan-1-one], 25 to 200 nM; under `CNC(=O)[C@]1(C)CC[C@@H](Nc2ncc3c(Br)nn(-c4ccc(-c5nnc(C)o5)cc4)c3n2)C1` [(1R,3R)-3-[[3-bromo-1-[4-(5-methyl-1,3,4-oxadiazol-2-yl)phenyl]pyrazolo[3,4-d]pyrimidin-6-yl]amino]-N,1-dimethyl-cyclo-pentanecarboxamide], less than 25 nM.

With `CNC(=O)[C@]1(C)CC[C@@H](Nc2ncc3c(Br)nn(-c4ccc5c(c4)CCC(=O)N5CC#N)c3n2)C1` [(1R,3R)-3-[[3-bromo-1-[1-(cyano-methyl)-2-oxo-3,4-dihydroquinolin-6-yl]pyrazolo[3,4-d]pyrimidin-6-yl]amino]-N,1-dimethyl-cyclopentane-carboxamide], the IC50 fell in the range of 25 to 200 nM. Under `CNC(=O)[C@]1(C)CC[C@@H](Nc2ncc3c(Br)nn(-c4cc(C5CNCCO5)c5ncccc5c4)c3n2)C1` (stereo partly drawn) [(1R,3R)-3-[[3-bromo-1-(8-morpholin-2-yl-6-quinolyl)pyrazolo[3,4-d]pyrimidin-6-yl]amino]-N,1-dimethyl-cyclopentane-carboxamide] stands 25 to 200 nM; under `C[C@@]1(C(=O)N2CCN3C(=O)CC[C@@H]3C2)CC[C@@H](Nc2ncc3c(Br)nn(-c4cc(F)c5ncccc5c4)c3n2)C1`, 25 to 200 nM. To `C[C@]1(C(=O)O)CC[C@@H](Nc2ncc3c(Br)nn(-c4cc(CCN)c5ncccc5c4)c3n2)C1` [(1S,3R)-3-[[1-[8-(2-aminoethyl)-6-quinolyl]-3-bromo-pyrazolo[3,4-d]pyrimidin-6-yl]amino]-1-methyl-cyclopentanecarboxylic acid] belongs 25 to 200 nM; to `CNC(=O)[C@]1(C)CCC(Nc2ncc3c(Br)nn(-c4ccc5c(c4)NC(=O)CC5)c3n2)C1` (stereo partly drawn) [(1R)-3-[[3-bromo-1-(2-oxo-3,4-dihydro-1H-quinolin-7-yl)pyrazolo[3,4-d]pyrimidin-6-yl]amino]-N,1-dimethyl-cyclopentane-carboxamide], 25 to 200 nM. `CNC(=O)[C@]1(C)CC[C@@H](Nc2ncc3c(Br)nn(-c4ccc5ncc(NC(=O)CCN)cc5c4)c3n2)C1` [(1R,3R)-3-[[1-[3-(3-aminopropanoylamino)-6-quinolyl]-3-bromo-pyrazolo[3,4-d]pyrimidin-6-yl]amino]-N,1-dimethyl-cyclopentanecarboxamide]: the IC50 is less than 25 nM.

`CNC(=O)[C@]1(C)CC[C@@H](Nc2ncc3c(Br)nn(-c4ccc(-c5nnc(C(C)C)o5)cc4)c3n2)C1` [(1R,3R)-3-[[3-bromo-1-[4-(5-isopropyl-1,3,4-oxadiazol-2-yl)phenyl]pyrazolo[3,4-d]pyrimidin-6-yl]amino]-N,1-dimethyl-cyclopentanecarboxamide]: the IC50 was 25 to 200 nM. Turning to `CNC(=O)[C@]1(C)CC[C@@H](Nc2ncc3c(Br)nn(-c4cc(CCC#N)c5c(c4)CCC(=O)N5C)c3n2)C1` [(1R,3R)-3-[[3-bromo-1-[8-(2-cyanoethyl)-1-methyl-2-oxo-3,4-dihydroquinolin-6-yl]pyrazolo[3,4-d]pyrimidin-6-yl]amino]-N,1-dimethyl-cyclopentanecarboxamide], the IC50 was in the range of 25 to 200 nM.

Turning to `CNC(=O)[C@]1(C)CC[C@@H](Nc2ncc3c(Br)nn(-c4ccc5c(c4)CN(S(C)(=O)=O)CC5)c3n2)C1` [(1R,3R)-3-[[3-bromo-1-(2-methylsulfonyl-3,4-dihydro-1H-isoquinolin-7-yl)pyrazolo [3,4-d]pyrimidin-6-yl]amino]-N,1-dimethyl-cyclopentanecarboxamide], the IC50 lay in the range of 25 to 200 nM. Under `Cc1nnc(-c2ccc(-n3nc(Br)c4cnc(N[C@@H]5CCC(C)(C(=O)N6C[C@@H](C)O[C@H](C)C6)C5)nc43)cc2)o1` (stereo partly drawn) [[(3R)-3-[[3-bromo-1-[4-(5-methyl-1,3,4-oxadiazol-2-yl)phenyl]pyrazolo[3,4-d]pyrimidin-6-yl]amino]-1-methyl-cyclopentyl]-[(2R,6R)-2,6-dimethylmorpholin-4-yl]methanone] stands 25 to 200 nM.

In the case of `O=C([C@@H]1CC[C@@H](Nc2ncc3c(Br)nn(-c4ccc5ncccc5c4)c3n2)C1)N1CCN[C@@H](CCO)C1` [((1R,3R)-3-((3-bromo-1-(quinolin-6-yl)-1H-pyrazolo[3,4-d]pyrimidin-6-yl)amino)cyclo-pentyl)((S)-3-(2-hydroxyethyl)piperazin-1-yl) methanone], the IC50 was 25 to 200 nM. Under `CNC(=O)CC1CC(Nc2ncc3c(Br)nn(-c4ccc(-c5nnc(C)s5)cc4)c3n2)C1` (stereo not shown) stands 25 to 200 nM. To `CNC(=O)[C@]1(C)CC[C@@H](Nc2ncc3c(Br)nn(-c4ccc(-c5nnc(C(C)(C)N)s5)c(C#N)c4)c3n2)C1` [(1R,3R)-3-[[1-[4-[5-(1-amino-1-methyl-ethyl)-1,3,4-thiadiazol-2-yl]-3-cyano-phenyl]-3-bromo-pyrazolo[3,4-d]pyrimidin-6-yl]amino]-N,1-dimethyl-cyclopentanecarboxamide] belongs 25 to 200 nM; to `Cc1nnc(-c2ccc(-n3nc(Br)c4cnc(N[C@@H]5CCC6(CC(=O)N(C)C6=O)C5)nc43)cc2CCC#N)s1` (stereo partly drawn) [3-[5-[3-bromo-6-[[(8R)-2-methyl-1,3-dioxo-2-azaspiro[4.4]nonan-8-yl]amino]pyrazolo[3,4-d]pyrimidin-1-yl]-2-(5-methyl-1,3,4-thiadiazol-2-yl)phenyl]propanenitrile; 2,2,2-trifluoroacetic acid], 25 to 200 nM; to `O=C(NC1COC1)[C@@H]1CC[C@@H](Nc2ncc3c(Br)nn(-c4ccc5ncccc5c4)c3n2)C1` [(1R,3R)-3-((3-bromo-1-(quinolin-6-yl)-1H-pyrazolo[3,4-d]pyrimidin-6-yl)amino)-N-(oxetan-3-yl)cyclopentane-1-carboxamide], 25 to 200 nM.

Consider `CNC(=O)[C@]1(C)CC[C@@H](Nc2ncc3c(Br)nn(-c4ccc(-n5nccn5)cc4)c3n2)C1` [(1R,3R)-3-[[3-bromo-1-[4-(triazol-2-yl)phenyl]pyrazolo[3,4-d]pyrimidin-6-yl]amino]-N,1-dimethyl-cyclopentane-carboxamide], for which the IC50 lay in the range of 25 to 200 nM. Under `CNC(=O)[C@]1(C)CC[C@@H](Nc2ncc3c(Br)nn(-c4cc(CCNC(C)=O)c5ncccc5c4)c3n2)C1` [(1R,3R)-3-[[1-[8-(2-acetamidoethyl)-6-quinolyl]-3-bromo-pyrazolo[3,4-d]pyrimidin-6-yl]amino]-N,1-dimethyl-cyclopentane-carboxamide] stands 25 to 200 nM.

The values are drawn from patent publication US11046699B2, “Pyrazolo-pyrimidin-amino-cycloalkyl compounds and their therapeutic uses” (RAPT THERAPEUTICS, INC., priority 2018, dated 2021).
